Assay results published in patent publication US11795460B2, “Compositions and methods for TTR gene editing and treating ATTR amyloidosis” (Intellia Therapeutics, Inc., priority 2017, dated 2023).

Legend:
TTR [1] = test: TTR editing in HUH7 cells transfected with Spy Cas9 mRNA and dgRNAs (Table 5); format: cell-based, human; details: HUH7 cells co-transfected with Spy Cas9 mRNA (SEQ ID NO:2) and dgRNAs
Outline: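 HUH7 cells were transfected sequentially with Spy Cas9 mRNA (100 ng) then crRNA and tracer RNA (25 nM each) by lipofection. Genomic DNA was collected 24, 48 or 72 h later. Target site was PCR-amplified and NGS-sequenced, and percent editing was taken as reads with indels or substitutions over total reads.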

TTR [2] = test: TTR editing in primary human hepatocytes transfected with Spy Cas9 protein (RNP) loaded with dgRNAs (Table 8); format: cell-based; details: dgRNA transfected with Spy Cas9 protein (RNP)
Outline: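 Primary human hepatocytes were lipofected (RNAiMAX) with RNP of Spy Cas9 (10 nM) plus pre-annealed crRNA (10 nM) and trRNA (10 nM) and harvested 24, 48 or 72 h later. Target-site amplicons were sequenced on Illumina MiSeq and aligned to hg38; percent editing = reads with indels or substitutions over total reads.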

TTR [3] = test: TTR editing in primary human hepatocytes electroporated with Spy Cas9 protein loaded with dgRNAs (Table 7); format: cell-based; details: dgRNA electroporated with Spy Cas9 protein (RNP)
Outline: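 Primary human or cynomolgus hepatocytes electroporated (Lonza P3 buffer, program EX-147) with Spy Cas9 RNP carrying pre-annealed crRNA/trRNA dual guides. Genomic DNA harvested at 24, 48 or 72 h; target amplicons sequenced by Illumina MiSeq. Percent editing = reads with indels or substitutions over total reads.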

| Sequence | Avg % Deletion (TTR [1]) [%] | Avg % Edit (TTR [1]) [%] | Avg % Insert (TTR [1]) [%] | Avg % Deletion (TTR [2]) [%] | Avg % Edit (TTR [2]) [%] | Avg % Insert (TTR [2]) [%] | Avg % Deletion (TTR [3]) [%] | Avg % Edit (TTR [3]) [%] | Avg % Insert (TTR [3]) [%] |
| --- | --- | --- | --- | --- | --- | --- | --- | --- | --- |
| CCUCCUCUGCCUUGCUGGAC (tested as dual guide RNA, chemistry not given here) [CR003336] | 26.56 | 30.05 | 4.14 | 0.58 | 30.70 | 30.11 | 0.70 | 39.17 | 38.43 |
| UUUGACCAUCAGAGGACACU (tested as dual guide RNA, chemistry not given here) [CR003344] | 54.40 | 64.02 | 10.76 | 4.48 | 35.45 | 30.97 | 6.10 | 39.40 | 33.30 |
| CCUCUGCAUGCUCAUGGAAU (tested as dual guide RNA, chemistry not given here) [CR003370] | 35.55 | 39.16 | 4.83 | 1.26 | 20.06 | 18.80 | 0.90 | 15.27 | 14.43 |
| GGGAUUGGUGACGACAGCCG (tested as dual guide RNA, chemistry not given here) [CR003390] | 16.49 | 18.97 | 3.31 | 0.24 | 16.09 | 15.85 | 0.23 | 15.97 | 15.80 |
| UUCUUUGGCAACUUACCCAG (tested as dual guide RNA, chemistry not given here) [CR003357] | 30.82 | 36.31 | 6.37 | 0.90 | 49.35 | 48.45 | 0.77 | 36.23 | 35.47 |
| GCCGUGGUGGAAUAGGAGUA (tested as dual guide RNA, chemistry not given here) [CR003387] | 25.55 | 25.64 | 0.23 | 0.11 | 1.79 | 1.68 | 0.20 | 1.87 | 1.70 |
| AGGCAGUCCUGCCAUCAAUG (tested as dual guide RNA, chemistry not given here) [CR003348] | 22.71 | 57.14 | 36.08 | 9.44 | 23.18 | 13.74 | 17.27 | 28.53 | 11.30 |
| GCAUGGGCUCACAACUGAGG (tested as dual guide RNA, chemistry not given here) [CR003362] | 23.76 | 26.43 | 3.43 | 0.56 | 11.65 | 11.10 | 0.20 | 7.03 | 6.87 |
| AAUAGGAGUAGGGGCUCAGC (tested as dual guide RNA, chemistry not given here) [CR003384] | 16.29 | 17.03 | 0.84 | 0.17 | 3.56 | 3.39 | 0.23 | 1.87 | 1.73 |
| AAAGUUCUAGAUGCUGUCCG (tested as dual guide RNA, chemistry not given here) [CR003346] | 6.97 | 18.07 | 13.17 | 1.84 | 4.11 | 2.27 | 14.83 | 35.67 | 20.83 |
| GGCUGUCGUCACCAAUCCCA (tested as dual guide RNA, chemistry not given here) [CR003391] | 59.70 | 61.31 | 2.10 | 0.26 | 34.72 | 34.46 | 0.27 | 29.77 | 29.57 |
| ACUGAGGAGGAAUUUGUAGA (tested as dual guide RNA, chemistry not given here) [CR003363] | 23.78 | 41.01 | 17.83 | 6.18 | 27.65 | 21.47 | 1.63 | 9.43 | 7.80 |
| GCAGGGCGGCAAUGGUGUAG (tested as dual guide RNA, chemistry not given here) [CR003380] | 29.29 | 31.76 | 3.29 | 0.46 | 8.17 | 7.71 | 0.10 | 5.37 | 5.27 |
| GGAGUAGGGGCUCAGCAGGG (tested as dual guide RNA, chemistry not given here) [CR003382] | 34.47 | 34.47 | 0.14 | 0.15 | 2.44 | 2.28 | 0.43 | 8.40 | 8.10 |
| ACACAAAUACCAGUCCAGCA (tested as dual guide RNA, chemistry not given here) [CR003339] | 20.13 | 79.97 | 60.55 | 36.21 | 45.06 | 8.85 | 34.07 | 43.00 | 8.93 |
| CUCUGCAUGCUCAUGGAAUG (tested as dual guide RNA, chemistry not given here) [CR003369] | 17.38 | 24.19 | 7.12 | 1.31 | 12.98 | 11.67 | 0.40 | 3.67 | 3.30 |
| CUGGUAUUUGUGUCUGAGGC (tested as dual guide RNA, chemistry not given here) [CR003341] | 13.20 | 20.58 | 7.78 | 5.02 | 19.66 | 14.64 | 4.40 | 11.43 | 7.03 |
